Measured values as given in patent publication US9517244B2, “Therapeutic combinations for use in neoplasia” (University of Florida Research Foundation, Inc., priority 2011, dated 2016).
Like-named read-outs stand apart in the source and are kept apart here.

How the values were obtained:
Assay in all cases: MTT assay, pancreatic cancer cell line
Type in all cases: cell-based, human
Conditions in all cases: 72 h
AsPC1 = system: AsPC1
HPAC = system: HPAC
PANC1 = system: PANC1
BxPC3 = system: BxPC3
Mia-PaCa2 = system: Mia-PaCa2

Question: Which IC50 (AsPC1; AsPC1, NSC-30049 0 μM, 1 μM dFdC, read-out: IC50 of CDDP) does the source give for `[NH2][Pt]([NH2])([Cl])[Cl]` [CDDP, cisplatin] here?
Answer: Its IC50 is 3190 ± 280 nM.

Question: And the IC50 (AsPC1; AsPC1, NSC-30049 0 μM, no dFdC, read-out: IC50 of CDDP)?
Answer: Its IC50 is 3490 ± 130 nM.

Question: What about the IC50 (AsPC1; AsPC1, NSC-30049 0.5 μM, 1 μM dFdC, read-out: IC50 of CDDP) of the same molecule?
Answer: Its IC50 is 640 ± 80 nM.

Question: And the IC50 (AsPC1; AsPC1, NSC-30049 0.5 μM, no dFdC, read-out: IC50 of CDDP)?
Answer: The IC50 was 2200 ± 220 nM.

Question: And the IC50 (AsPC1; AsPC1, NSC-30049 1.0 μM, 1 μM dFdC, read-out: IC50 of CDDP)?
Answer: The IC50 was 110 ± 90 nM.

Question: And the IC50 (AsPC1; AsPC1, NSC-30049 1.0 μM, no dFdC, read-out: IC50 of CDDP)?
Answer: Its IC50 is 2090 ± 190 nM.

Question: What about the IC50 (AsPC1; AsPC1, NSC-30049 2.5 μM, 1 μM dFdC, read-out: IC50 of CDDP) of the same molecule?
Answer: The IC50 was 4 ± 0.1 nM.

Question: And the IC50 (AsPC1; AsPC1, NSC-30049 2.5 μM, no dFdC, read-out: IC50 of CDDP)?
Answer: The IC50 was 200 ± 10 nM.

Question: And the IC50 (HPAC; HPAC, NSC-30049 0 μM, 0.025 μM dFdC, read-out: IC50 of CDDP)?
Answer: Its IC50 is 13800 ± 5510 nM.

Question: What about the IC50 (HPAC; HPAC, NSC-30049 0 μM, no dFdC, read-out: IC50 of CDDP) of the same molecule?
Answer: The IC50 was 14100 ± 4340 nM.

Question: What about the IC50 (HPAC; HPAC, NSC-30049 0.5 μM, 0.025 μM dFdC, read-out: IC50 of CDDP) of the same molecule?
Answer: Its IC50 is 20 ± 10 nM.

Question: What about the IC50 (HPAC; HPAC, NSC-30049 0.5 μM, no dFdC, read-out: IC50 of CDDP) of the same molecule?
Answer: Its IC50 is 14500 ± 2470 nM.

Question: What about the IC50 (HPAC; HPAC, NSC-30049 1.0 μM, 0.025 μM dFdC, read-out: IC50 of CDDP) of the same molecule?
Answer: Its IC50 is 10 ± 1 nM.

Question: And the IC50 (HPAC; HPAC, NSC-30049 1.0 μM, no dFdC, read-out: IC50 of CDDP)?
Answer: Its IC50 is 11600 ± 1820 nM.

Question: And the IC50 (HPAC; HPAC, NSC-30049 2.5 μM, 0.025 μM dFdC, read-out: IC50 of CDDP)?
Answer: The IC50 was 10 ± 1 nM.

Question: And the IC50 (HPAC; HPAC, NSC-30049 2.5 μM, no dFdC, read-out: IC50 of CDDP)?
Answer: Its IC50 is 4710 ± 1240 nM.

Question: What about the IC50 (PANC1; PANC1, NSC-30049 0 μM, 1 μM dFdC, read-out: IC50 of CDDP) of the same molecule?
Answer: The IC50 was 9870 ± 800 nM.

Question: And the IC50 (PANC1; PANC1, NSC-30049 0 μM, no dFdC, read-out: IC50 of CDDP)?
Answer: The IC50 was 9550 ± 940 nM.

Question: And the IC50 (PANC1; PANC1, NSC-30049 0.5 μM, 1 μM dFdC, read-out: IC50 of CDDP)?
Answer: The IC50 was 1060 ± 390 nM.

Question: And the IC50 (PANC1; PANC1, NSC-30049 0.5 μM, no dFdC, read-out: IC50 of CDDP)?
Answer: The IC50 was 9000 ± 30 nM.

Question: What about the IC50 (PANC1; PANC1, NSC-30049 1.0 μM, 1 μM dFdC, read-out: IC50 of CDDP) of the same molecule?
Answer: The IC50 was 1030 ± 360 nM.

Question: And the IC50 (PANC1; PANC1, NSC-30049 1.0 μM, no dFdC, read-out: IC50 of CDDP)?
Answer: The IC50 was 7800 ± 500 nM.

Question: And the IC50 (PANC1; PANC1, NSC-30049 2.5 μM, 1 μM dFdC, read-out: IC50 of CDDP)?
Answer: The IC50 was 120 ± 90 nM.

Question: What about the IC50 (PANC1; PANC1, NSC-30049 2.5 μM, no dFdC, read-out: IC50 of CDDP) of the same molecule?
Answer: The IC50 was 2040 ± 410 nM.

Question: What about the IC50 (BxPC3; BxPC3, NSC-30049 0 μM, 0.025 μM dFdC, read-out: IC50 of CDDP) of the same molecule?
Answer: Its IC50 is 2020 ± 350 nM.

Question: And the IC50 (BxPC3; BxPC3, NSC-30049 0 μM, no dFdC, read-out: IC50 of CDDP)?
Answer: Its IC50 is 1960 ± 80 nM.

Question: And the IC50 (BxPC3; BxPC3, NSC-30049 0.5 μM, 0.025 μM dFdC, read-out: IC50 of CDDP)?
Answer: The IC50 was 940 ± 60 nM.

Question: What about the IC50 (BxPC3; BxPC3, NSC-30049 0.5 μM, no dFdC, read-out: IC50 of CDDP) of the same molecule?
Answer: The IC50 was 1530 ± 90 nM.

Question: And the IC50 (BxPC3; BxPC3, NSC-30049 1.0 μM, 0.025 μM dFdC, read-out: IC50 of CDDP)?
Answer: Its IC50 is 540 ± 60 nM.

Question: And the IC50 (BxPC3; BxPC3, NSC-30049 1.0 μM, no dFdC, read-out: IC50 of CDDP)?
Answer: Its IC50 is 1380 ± 40 nM.

Question: What about the IC50 (BxPC3; BxPC3, NSC-30049 2.5 μM, 0.025 μM dFdC, read-out: IC50 of CDDP) of the same molecule?
Answer: Its IC50 is 40 ± 1 nM.

Question: What about the IC50 (BxPC3; BxPC3, NSC-30049 2.5 μM, no dFdC, read-out: IC50 of CDDP) of the same molecule?
Answer: Its IC50 is 260 ± 70 nM.

Question: And the IC50 (Mia-PaCa2; Mia-PaCa2, NSC-30049 0 μM, 1 μM dFdC, read-out: IC50 of CDDP)?
Answer: Its IC50 is 22200 ± 1150 nM.

Question: What about the IC50 (Mia-PaCa2; Mia-PaCa2, NSC-30049 0 μM, no dFdC, read-out: IC50 of CDDP) of the same molecule?
Answer: Its IC50 is 22300 ± 1100 nM.

Question: What about the IC50 (Mia-PaCa2; Mia-PaCa2, NSC-30049 0.5 μM, 1 μM dFdC, read-out: IC50 of CDDP) of the same molecule?
Answer: Its IC50 is 90 nM.

Question: What about the IC50 (Mia-PaCa2; Mia-PaCa2, NSC-30049 0.5 μM, no dFdC, read-out: IC50 of CDDP) of the same molecule?
Answer: Its IC50 is 14300 ± 490 nM.

Question: And the IC50 (Mia-PaCa2; Mia-PaCa2, NSC-30049 1.0 μM, 1 μM dFdC, read-out: IC50 of CDDP)?
Answer: The IC50 was 70 nM.

Question: And the IC50 (Mia-PaCa2; Mia-PaCa2, NSC-30049 1.0 μM, no dFdC, read-out: IC50 of CDDP)?
Answer: The IC50 was 13400 ± 1330 nM.

Question: What about the IC50 (Mia-PaCa2; Mia-PaCa2, NSC-30049 2.5 μM, 1 μM dFdC, read-out: IC50 of CDDP) of the same molecule?
Answer: The IC50 was 70 nM.

Question: And the IC50 (Mia-PaCa2; Mia-PaCa2, NSC-30049 2.5 μM, no dFdC, read-out: IC50 of CDDP)?
Answer: The IC50 was 12200 ± 1120 nM.

Question: `Nc1ccn([C@@H]2O[C@H](CO)[C@@H](O)C2(F)F)c(=O)n1` [dFdC, gemcitabine] was tested. Which IC50 (AsPC1; Homo sapiens, AsPC1 (dFdC-resistant), single agent, read-out: IC50) did it give?
Answer: Its IC50 is 1830 ± 470 nM.

Question: What about the IC50 (HPAC; Homo sapiens, HPAC (dFdC-sensitive), single agent, read-out: IC50) of the same molecule?
Answer: The IC50 was 70 ± 7 nM.

Question: And the IC50 (PANC1; Homo sapiens, PANC-1, PANC1 (dFdC-resistant), single agent, read-out: IC50)?
Answer: Its IC50 is 11600 ± 2930 nM.

Question: What about the IC50 (BxPC3; Homo sapiens, BXPC-3, BxPC3 (dFdC-sensitive), single agent, read-out: IC50) of the same molecule?
Answer: The IC50 was 70 ± 5 nM.

Question: And the IC50 (Mia-PaCa2; Homo sapiens, MIA PaCa-2, Mia-PaCa2 (dFdC-resistant), single agent, read-out: IC50)?
Answer: The IC50 was 11500 ± 2900 nM.
